In patent US20100183629A1, “ANTAGONISTS OF ENDOTHELIAL DIFFERENTIATION GENE SUBFAMILY 3 (EDG-3, S1P3) RECEPTORS FOR PREVENTION AND TREATMENT OF OCULAR DISORDERS” (ALCON RESEARCH, LTD., priority 2006, published 2010):

Target: T1, Edg3 receptor (Homo sapiens, UniProt Q99500)
T1 construct: endogenous in cells; host or cells: cultured human trabecular meshwork (TM) cells
Test: PAI-1 levels (ELISA) in supernatants of treated human TM cell cultures, Edg3 receptor antagonism
Format: cell-based
Settings: human trabecular meshwork cell cultures, 24 hours
Description: FIG. 2A and FIG. 2B. Human trabecular meshwork cell cultures were treated with (open circles) or without (closed circles) the Edg3 receptor subtype antagonist CAY10444 in the presence of various amounts of the endogenous Edg receptor agonist S1P (FIG. 2A) or in the presence of various amounts of FTY720, a structural analog of SIP (FIG. 2B). Twenty-four hours later, the levels of the secreted PAI-1 protein were then determined by ELISA of supernatant aliquots from the treated cultures as cited in Example 2.
The effect of Edg3 receptor antagonism on expression of extracellular matrix-related proteins by cultured human trabecular meshwork cells is determined as follows. […] Levels of extracellular matrix-related proteins, such as fibronectin, plasminogen activator inhibitor I (PAI-1), collagens, fibrillin, vitronectin, laminin, thrombospondin I, proteoglycans, or integrins, are then measured in each cell culture group via standard enzyme-linked immunoabsorbent assays (ELISA). […]
An example of the effect of Edg3 receptor antagonism on PAI-1 levels in supernatants from treated human TM cell cultures is shown in FIG. 2A and FIG. 2B. […] Twenty-four hours later, the levels of the secreted PAI-1 protein were then determined by ELISA of supernatant aliquots from the treated cultures.

T1 sequence (Q99500 whole entry): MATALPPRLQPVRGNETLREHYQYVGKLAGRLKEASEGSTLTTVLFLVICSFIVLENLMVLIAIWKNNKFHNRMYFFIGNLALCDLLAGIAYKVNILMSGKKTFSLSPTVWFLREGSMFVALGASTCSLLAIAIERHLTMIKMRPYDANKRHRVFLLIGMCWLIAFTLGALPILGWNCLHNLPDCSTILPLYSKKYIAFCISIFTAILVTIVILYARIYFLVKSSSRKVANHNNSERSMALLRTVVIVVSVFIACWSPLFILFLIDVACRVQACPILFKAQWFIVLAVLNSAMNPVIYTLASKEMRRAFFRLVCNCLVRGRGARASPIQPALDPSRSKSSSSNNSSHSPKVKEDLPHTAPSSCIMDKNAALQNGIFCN

antagonism of FTY720 effect on secreted PAI-1 protein level (various amounts of FTY720, ELISA of supernatant (FIG. 2B)): potently and efficaciously antagonized
antagonism of S1P effect on secreted PAI-1 protein level (various amounts of S1P, ELISA of supernatant (FIG. 2A)): potently and efficaciously antagonized
Structure (SMILES): CCCCCCCCCCCC1N[C@H](C(=O)O)CS1 (some centres unmarked) [CAY10444]
